Paper PMC4469266 (Bioorganic & medicinal chemistry letters, 2015)

Biological target: dopamine D1 receptor (Rattus norvegicus, UniProt P18901)
Test: competition autoradiography with 3H-SCH […] in rat brain slices

Chain of dopamine D1 receptor (P18901 whole entry): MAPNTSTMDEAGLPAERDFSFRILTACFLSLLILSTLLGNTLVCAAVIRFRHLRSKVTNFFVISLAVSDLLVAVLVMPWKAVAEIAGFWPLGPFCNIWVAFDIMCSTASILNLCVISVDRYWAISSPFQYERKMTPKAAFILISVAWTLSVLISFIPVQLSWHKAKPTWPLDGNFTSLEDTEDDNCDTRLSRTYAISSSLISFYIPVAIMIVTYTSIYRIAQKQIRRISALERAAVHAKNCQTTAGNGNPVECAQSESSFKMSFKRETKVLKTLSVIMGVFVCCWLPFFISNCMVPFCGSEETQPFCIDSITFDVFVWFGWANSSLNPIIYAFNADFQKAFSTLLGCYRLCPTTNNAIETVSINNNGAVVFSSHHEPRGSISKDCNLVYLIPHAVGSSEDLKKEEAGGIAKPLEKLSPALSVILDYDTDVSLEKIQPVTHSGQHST

Ki: 19.5 nM
Structure (SMILES): CN1CCc2cc(Cl)c(O)cc2C(c2cccc(NC[C@H](F)[C@@H](O)[C@H](O)[C@H](O)CO)c2)C1 (stereo partly drawn) [compound 7, 7-chloro-8-hydroxy-3-methyl-l-(3’-fluorodeoxyglucaminophenyl)-2,3,4,5-tetrahydro-lH-3-benzazepine]
